What all share (assay type): cell-based
One experiment relates to HCT116 cells. Kind of experiment: MTT antiproliferative assay, HCT116. The note with it: Homo sapiens, HCT-116, 72 h, read-out: HCT116 IC50.
The next experiment concerns MCF-7 cells. Description: MTT antiproliferative assay, MCF-7. As to conditions: Homo sapiens, MCF7, 72 h, read-out: MCF-7 IC50.
In another experiment the test system is SKBR-3 cells. Kind of experiment: MTT antiproliferative assay, SKBR-3. As to conditions: Homo sapiens, SK-BR-3, 72 h, read-out: SKBR-3 IC50. (In general: Tetrazolium dyes change colour on reduction, which living cells bring about.)

The results in this text go back to publication PMC2866155 (Chemical biology & drug design, 2009).

With `COc1ccc(C=Cc2cc(NC(=O)c3ccc(C(N)=NO)cc3)cc(OC)c2)cc1` [HERP6, 4-(N'-hydroxycarbamimidoyl)-N-[3-methoxy-5-(4-methoxystyryl)phenyl] benzamide], the IC50 in the experiment with HCT116 cells is 11.9 µM; in the experiment with MCF-7 cells, 9.2 µM; with SKBR-3 cells, 1.62 µM.

For orientation: IC50 means the concentration that inhibits the measured activity by half.
